Source: patent US20050019746A1, “Apoptosis-related kinase/GPCRs” (EiRx Therapeutics Limited, priority 2003, published 2005)

Key:
Assay type in all cases: cell-based, human
HCT15 cells [1] = assay: 10-14 day Clonagenicity Assay (MTT), HCT15; conditions: independent experiment n = 1, dilution point of maximum toxicity
Description: (§1) The Clonagenicity Assay represents a Cell Viability Screen that allows assessment of a cytotoxic insult at a variety of seed densities of cancer cell lines over an extended period of logarithmic growth, such that the definitive effect of the test substance can be accurately quantified. In this instance, the ‘cytotoxic insult’ to be tested involves the transfection of siRNA Oligomers to knockdown the expression of novel target Kinases and GPCRs as outlined previously. Cell number is quantified 10-14 days post siRNA transfection by MTT conversion as described in detail in Example 6.
(§2) The Clonagenicity Assay is optimised for each cell line examined with respect to seed number. The seed number varies for each cell line and accounts for the differences in cell size, growth rate and sensitivity to transfection-induced toxicity for each cell line pursued. Cells lines given as models for this example include HCT15, MCF7, A549, SKOV3, DU145, U251, PC3, A498 and HeLa. The siRNA oligo to Survivin serves as a positive control for toxicity in this assay and the missense control oligomer acts as a negative control as described in detail in Examples 5 and 6. The c-Raf, BCL2 and PI3K siRNA oligomers serve as additional controls as previously mentioned. The Clonagenicity assay is performed as outlined below.
(§3) Cells are seeded into a 96-well plate as described below and allowed to adhere overnight at 37° C. in a humidified atmosphere containing 5% CO2 in air. Wells are seeded with an appropriate cell number (cell line dependent) in Column 1 of the 96 well plates and this cell suspension is diluted 1 in 2 across the 96 well plates from Column 1 through to 6 (represented on the x-axis in results). Cells are next transfected with siRNA Oligomers, at a concentration of 2 μg/ml, against the genes of interest. Transfections continue for 4 hrs after which the transfection solution is removed and cells are refed with fresh medium and allow to incubate overnight. An additional media change@24 hrs post transfection is made to minimise toxicity of the transfection reagent. Cells are subsequently incubated for a 10-14 Day period post transfection at a 37° C. incubation as described above. Medium is renewed weekly following which MTT quantification is performed as described in Example 5.
(§4) To be considered cytotoxic, the siRNA Oligo against the gene target must induce a decreased viability in a cell line across at least 2 seed densities in the clonagenicity assay, such that a significant difference between the target gene and MS is observed i.e. no crossing of the Standard Error bars is detected. The average percentage viability, relative to missense, is recorded for the dilution point at which Maximum Toxicity is induced is recorded in Table 13.
(§5) Table 13 Clonagenicity Assay—This table gives the average percentage survival of the indicated cell lines relative to the missense in a clonagenicity assay, over 3 independent experiments. As an internal reference, the known survival gene ‘Survivin’, BCL2, c-Raf and PI3KR1 was also targeted by siRNA. When no Cytotoxic response is detected ‘-’ is recorded.

A549 cells [2] = assay: 10-14 day Clonagenicity Assay (MTT), A549; conditions: for percentage survival relative to the missense, n = 1: independent experiment n = 1, dilution point of maximum toxicity; for percentage survival relative to the missense, n = 3: independent experiment n = 3, dilution point of maximum toxicity
Description: as §1, §2, §3, §4, §5

U251 cells = assay: 10-14 day Clonagenicity Assay (MTT), U251; conditions: for percentage survival relative to the missense, n = 1: independent experiment n = 1; for percentage survival relative to the missense, n = 3: independent experiment n = 3
Description: as §1, §2, §3
Note seed density decreases from 3.5 to 0.1×10^3 cells on the x-axis and the y-axis represents cell number as quantified by MTT conversion, 10-14 days post transfection. This decrease is substantially greater that with the apoptosis gene, Survivin. […] Note seed density decreases from 3.5 to 0.1×10^3 cells on the x-axis and the y-axis represents cell number as quantified by MTT conversion, 10-14 days post transfection.
as §4, §5

PC3 cells = assay: Cell Migration Assay (Chemicon ECM550, Boyden Chamber); conditions: 48 hours post siRNA transfection, 24-hour migration, compared to missense and UPA controls
Description: Cells are seeded into a 6-well plate and allowed to adhere overnight at 37° C. in a humidified atmosphere containing 5% CO2 in air. Cells are next transfected with siRNA oligonucleotides, at a concentration of 2 μg/ml, against the genes of interest, as described in detail in Example 5. Transfections are continued for 4 hrs after which the transfection solution is removed and cells are refed with fresh medium and allowed incubate overnight. Transfected cells are next harvested for seeding into migration assay as described below.
The Chemicon Cell Migration Assay (ECM550) is used to quantify the number of PC3 cells that successfully migrate across a Boyden Chamber towards a chemoattractant over a 24-hour incubation period. Assessment of PC3 cell migration is performed routinely 48 hours post siRNA Transfection. The effect of reducing the expression of genes of interest is compared to that of a missense control oligomer and to the influence of UPA knockdown, which is reported in the literature to decrease PC3 cell migration. The Migration Assay is performed as per manufacturers inductions. Results are illustrated in FIGS. 39 to 41.
Cells were plated and transfected with the indicated siRNA as described above. Migration of PC3 cells was tracked using a fluorescent dye. Consequently increases in fluorescent units correlates positively with increased migration.

SKOV3 cells = assay: 10-14 day Clonagenicity Assay (MTT), SKOV3
Description: as §1, §2, §3, §4, §5

DU145 cells = assay: 10-14 day Clonagenicity Assay (MTT), DU145
Description: as §1, §2, §3, §4, §5

A498 cells = assay: 10-14 day Clonagenicity Assay (MTT), A498
Description: as §1, §2, §3, §4, §5

A549 cells [3] = assay: Anchorage Independence/Soft Agar Assay, A549; set-up: PERCENTAGE SURVIVAL RELATIVE TO MS, A549, n = 2: tested at 2 µg; conditions: soft agar
Description: (§6) The Anchorage Independence/Soft Agar Assay allows assessment of the influence of modulation of gene expression on clonal tumouroid formation by observing and quantifying tumouroid morphology and colony number over an extended period of logarithmic growth thereby ascertaining any cell death is induced.
(§7) Cells are seeded into a 6-well plate and allowed to adhere overnight at 37° C. in a humidified atmosphere containing 5% CO2 in air. Cells are next transfected with siRNA Oligomers, at a concentration of 2 μg, against the genes of interest. Transfections continued for 4 hrs after which the transfection solution is removed and cells are refed with fresh medium and allowed incubate overnight. Transfected cells are next harvested for seeding into soft agar assay as described below. Cells are seeded at 5×10^4 cells per well of a 6 well plate and incubated over a 12/14-Day period whilst proliferating in a 0.05% Agar/Medium cell suspension at 37° C. in a humidified atmosphere containing 5% CO2 in air. Colonies formed are subsequently stained with Crystal Violet, their morphology is assessed and colonies formed are enumerated at a 4× magnification.
(§8) The cytotoxic effect of each gene is determined by a reduction in colony number compared to our MS control, but any influence on the morphology of the colony is also noted.
(§9) Examples of genes with a cytotoxic effect on knockdown as detected by the soft agar assay are outlined in Table 14. Table 14 gives the percentage survival of the indicated cell lines post transfection with siRNA oligomers to target genes relative to that of the missense in an anchorage independent assay. As an internal reference, the known survival gene Survivin was also targeted by siRNA. This table illustrates the magnitude of cytotoxicity induced by the knockdown of each target gene compared to the MS control i.e. the number of colonies formed are stained with Crystal violet and enumerated visually as discussed.

HCT15 cells [4] = assay: Anchorage Independence/Soft Agar Assay, HCT15; set-up: PERCENTAGE SURVIVAL RELATIVE TO MS, HCT15, n = 2: tested at 2 µg; PERCENTAGE SURVIVAL RELATIVE TO MS, HCT15, n = 1: tested at 2 µg siRNA; conditions: soft agar
Description: as §6, §7, §8, §9

MCF7 cells = assay: Anchorage Independence/Soft Agar Assay, MCF7; set-up: PERCENTAGE SURVIVAL RELATIVE TO MS, MCF7, n = 2: tested at 2 µg; conditions: soft agar
Description: as §6, §7, §8, §9

[5] = U251, clonagenicity assay, dilution point of maximum toxicity
[6] = independent experiment n = 2, dilution point of maximum toxicity
[7] = independent experiment n = 1, dilution point of maximum toxicity
[8] = independent experiment n = 3, dilution point of maximum toxicity

Substance: siRNA RBS6PK: sense CGUCCUGGAGUGACAAAUGtt, antisense CAUUUGUCACUCCAGGACGtt (sense CGUCCUGGAGUGACAAAUGTT; antisense CAUUUGUCACUCCAGGACGTT; chemistry not given here)
- percentage survival relative to the missense, n = 1 (HCT15 cells [1]): 85.2%
- percentage survival relative to the missense, n = 1 (A549 cells [2]): 79.8%
- percentage survival relative to the missense, n = 3 (A549 cells [2]): 71.7%
- percentage survival relative to the missense, n = 1 (U251 cells; [5]): 62.5%
- percentage survival relative to the missense, n = 3 (U251 cells; [5]): 20.2%
- migration of PC3 cells (PC3 cells): inhibition of migration

Substance: siRNA STK6: sense GCCGGUUCAGAAUCAGAAGtt, antisense CUUCUGAUUCUGAACCGGCtt (sense GCCGGUUCAGAAUCAGAAGTT; antisense CUUCUGAUUCUGAACCGGCTT; chemistry not given here)
- percentage survival relative to the missense, n = 1 (HCT15 cells [1]): 69.6%
- percentage survival relative to the missense, n = 1 (A549 cells [2]): 56.8%
- percentage survival relative to the missense, n = 2 (A549 cells [2]; [6]): 69.6%
- percentage survival relative to the missense, n = 3 (A549 cells [2]): 31.6%
- percentage survival relative to the missense, n = 1 (SKOV3 cells; [7]): 10.2%
- percentage survival relative to the missense, n = 2 (SKOV3 cells; [6]): 35.3%
- percentage survival relative to the missense, n = 3 (SKOV3 cells; [8]): 37.2%
- percentage survival relative to the missense, n = 1 (DU145 cells; [7]): 48.1%
- percentage survival relative to the missense, n = 2 (DU145 cells; [6]): 45.3%
- percentage survival relative to the missense, n = 3 (DU145 cells; [8]): 34.8%
- viability/cytotoxicity in the Clonagenicity Assay (U251 cells; U251, 10-14 days post transfection, MTT, FIG. 35): decreases viability
- percentage survival relative to the missense, n = 1 (U251 cells; [5]): 12.8%
- percentage survival relative to the missense, n = 2 (U251 cells; U251, clonagenicity assay, independent experiment n = 2, dilution point of maximum toxicity): 51.5%
- percentage survival relative to the missense, n = 3 (U251 cells; [5]): 25.8%
- percentage survival relative to the missense, n = 1 (A498 cells; [7]): 18.5%
- percentage survival relative to the missense, n = 3 (A498 cells; [8]): 32.6%

Substance: siRNA TLK2B: sense GAUGGCGUGUAGAGAUAAGtt, antisense CUUAUCUCUACACGCCAUCtt (chain 1 GAUGGCGUGUAGAGAUAAGTT; chain 2 CUUAUCUCUACACGCCAUCTT; chemistry not given here)
- PERCENTAGE SURVIVAL RELATIVE TO MS, A549, n = 1 (A549 cells [3]; experiment n = 1): 65.8%
- PERCENTAGE SURVIVAL RELATIVE TO MS, A549, n = 2 (A549 cells [3]; experiment n = 2): 36.7%
- PERCENTAGE SURVIVAL RELATIVE TO MS, HCT15, n = 1 (HCT15 cells [4]; experiment n = 1): 67.3%
- PERCENTAGE SURVIVAL RELATIVE TO MS, HCT15, n = 2 (HCT15 cells [4]; experiment n = 2): 115.6%
- PERCENTAGE SURVIVAL RELATIVE TO MS, MCF7, n = 1 (MCF7 cells; experiment n = 1): 83.7%
- PERCENTAGE SURVIVAL RELATIVE TO MS, MCF7, n = 2 (MCF7 cells; experiment n = 2): 99.5%
